This note sets out measurements from patent US10328075B2, “Method of treatment and compounds for use therein” (Baker Heart and Diabetes Institute, priority 2015, dated 2019).

SMILES strings stand for the structures. Like-named read-outs stand apart in the source and are kept apart here.

One experiment concerns the target T1, hFPR1 (Homo sapiens, UniProt P21462).
T1 construct: expressed in transfected cells
T1 sequence (P21462 1-350): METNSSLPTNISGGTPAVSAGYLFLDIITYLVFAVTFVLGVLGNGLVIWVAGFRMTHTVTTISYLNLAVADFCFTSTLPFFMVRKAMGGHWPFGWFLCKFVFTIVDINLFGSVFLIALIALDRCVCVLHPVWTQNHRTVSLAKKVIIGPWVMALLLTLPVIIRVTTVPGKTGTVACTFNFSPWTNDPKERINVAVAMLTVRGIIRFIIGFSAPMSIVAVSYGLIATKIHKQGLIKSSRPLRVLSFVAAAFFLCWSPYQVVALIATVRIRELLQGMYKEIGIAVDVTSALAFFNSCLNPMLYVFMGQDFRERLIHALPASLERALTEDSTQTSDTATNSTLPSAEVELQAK
Kind of experiment: Inhibition of forskolin-stimulated cAMP accumulation in hFPR1-FlpIn-CHO cells. The format is cell-based. To be noted: for Concentration-response profile on forskolin-stimulated cAMP accumulation at hFPR1: in words. An excerpt:
(§1) cDNDA construct and generation of stable cell lines: cDNA in pcDNA3.1^+ encoding the human formyl peptide receptors (FPR) subtypes, hFPR1, hFPR2 and hFPR3 was obtained from Invitrogen. The sequences for 3 hFPR receptors were amplified by PCR and cloned into the Gateway entry vector, pDONR202™, using the BP clonase enzyme mix, according to the manufactures' instructions (Invitrogen Inc, Carlsbad, Calif., USA). All hFPR receptors constructs in pDONR201™ were subsequently transfected into the pEF5/FRT/V5/dest vector using the LR clonase enzyme mix (Invitrogen). Receptor constructs (pEF5/FRT/V5/dest) were used to transfect FIp-In CHO cells as described previously (Valant C et al., PNAS, 2014). Cells were selected using 500 μg/mL hydromycin to generate cell lines stably expressing each receptor construct. Cells were maintained and cultured in high glucose DMEM supplemented with 10% FBS, 16 mM HEPES and 500 μg/mL hydromycin at 37° C. under a humidified atmosphere containing 5% CO2.
(§2) In the various assays described below, cells were plated into 96-well transparent cell culture plates at 4×10^4 cells per well, cultured overnight in serum-free media at 37° C. in 5% CO2.
(§3) cAMP Accumulation: CHO-hFPR1, -hFPR2 and -hFPR3 stable transfected cells were plated into 96-well plates and cultured overnight at 37° C. in 5% CO2. Cells were washed with PBS, and cultured overnight. […] Cells were lysed in detection buffer (dH2O, 0.3% Tween 20, 5 mM HEPES, 0.1% BSA). Lysates were transferred to a 384-well plate and mixtures of detection buffer/donor bead-conjugated anti-cAMP antibody and detection buffer: biotinylated cAMP: acceptor bead-conjugated streptavidin were added to the lysates according to the PerkinElmer cAMP Alphascreen protocol. Under low-light conditions, a 1:50 (v:v) dilution of AlphaScreen acceptor beads: stimulation buffer was prepared, 1:150 (v:v) dilution of donor beads and 50 nM biotinylated cAMP in detection buffer was prepared in a 384-well opaque optiplates. Plates were incubated in the dark at room temperature overnight before the fluorescence signal was measured by use of a Fusion-α plate reader (PerkinElmer Life and Analytical Sciences). Data were normalized to the response elicited by 10 μM forskolin at the same time point.
(§4) Data analysis: All data were analysed using GraphPad Prism 6.0 (GraphPad Software, San Deigo, Calif., USA). Where appropriate, concentration-response curves were fitted to derive the maximal agonist effect (Emax), and the ligand potency estimate (pEC50), where Emax is the maximal possible response of the system (not the agonist), basal is the basal level of response in the absence of agonist, and pEC50 is the negative logarithm of the agonist concentration that gives a response halfway between Emax and basal.
(§5) In the present study, FIp-IN CHO cells and Gateway plasmid were obtained from Invitrogen Inc (Carlsbad, Calif., USA). The sequences for all 3 known human FPRs (hFPR1, hFPR2 and hFPR3) were amplified by PCR and cloned into the Gateway entry vector, pDONR202TM, using the BP clonase enzyme mix, according to the manufacturers' instructions. The hFPR pDONR201TM constructs were subsequently transfected into the pEF5/FRT/V5/dest vector using the LR clonase enzyme mix (Invitrogen). Receptor constructs (pEF5/FRT/V5/dest) were used to transfect FIp-IN CHO cells, as described previously (Valant et al. 2014). Cells were selected using 500 μg/mL hydromycin to generate cell lines stably expressing each human receptor construct. Cells were maintained and cultured in high glucose Dulbecco's modified eagle medium (DMEM) supplemented with 10% fetal bovine serum (FBS, from JRH Biosciences, Lenexa, Kans., USA) and 500 μg/mL hydromycin B (Invitrogen Inc) at 37° C. under a humidified atmosphere containing 5% CO2. Cell were plated into 96-well transparent cell culture plates at 4×10^4 cells per well, cultured overnight in serum-free media at 37° C. in 5% CO2.
Background: Cyclic AMP is a second messenger, typically raised through Gs and lowered through Gi signalling.

Another experiment concerns the target T2, hFPR2 (Homo sapiens, UniProt P25090).
T2 construct: expressed in transfected cells
T2 sequence (P25090 1-351): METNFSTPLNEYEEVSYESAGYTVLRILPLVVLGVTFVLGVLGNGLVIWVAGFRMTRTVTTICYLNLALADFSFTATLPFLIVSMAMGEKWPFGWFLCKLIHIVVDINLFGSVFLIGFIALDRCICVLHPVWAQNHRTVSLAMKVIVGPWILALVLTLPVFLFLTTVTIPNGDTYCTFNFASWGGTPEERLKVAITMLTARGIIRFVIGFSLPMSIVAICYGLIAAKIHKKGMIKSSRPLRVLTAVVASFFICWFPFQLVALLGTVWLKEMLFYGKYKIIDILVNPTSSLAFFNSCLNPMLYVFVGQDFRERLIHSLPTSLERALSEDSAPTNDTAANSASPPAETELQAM
The experiment can be described thus: Inhibition of forskolin-stimulated cAMP accumulation in hFPR2-FlpIn-CHO cells. The format is cell-based. To be noted: for ΔLog(τ/KA), inhibition of cAMP accumulation, hFPR2-Flpln-CHO: normalized transduction coefficient, reference agonist Cmpd43; for Log(τ/KA), inhibition of cAMP accumulation, hFPR2-Flpln-CHO: transduction coefficient; for Effect on the cAMP response at hFPR2: over the concentration range tested.
Text: as §1, §2, §3, §4, §5

Where [1] appears, read: Table 4, percentage inhibition of forskolin-stimulated cAMP accumulation, read-out: Emax (%), inhibition to cAMP accumulation, hFPR2-Flpln-CHO.
Setting [2] is: Table 8, percent inhibition of forskolin-induced cAMP accumulation, read-out: Emax, inhibition of cAMP accumulation, hFPR2-Flpln-CHO.

As a reminder, the Emax is the size of the effect at its maximum, as opposed to the concentration needed. For `CC(C)C1C(NC(=O)Nc2ccc(Cl)cc2)C(=O)N(c2ccccc2)N1C` (centres unmarked) [BIDI-002], the Emax is 27 ± 20% at hFPR1 (Table 4, percentage inhibition of forskolin-stimulated cAMP accumulation, read-out: Emax (%), inhibition to cAMP accumulation, hFPR1-Flpln-CHO); 27 ± 20% on hFPR1 (Table 8, percent inhibition of forskolin-induced cAMP accumulation, read-out: Emax, inhibition of cAMP accumulation, hFPR1-Flpln-CHO); 66 ± 6% on hFPR2 (setting [1]); 66 ± 6% on hFPR2 (setting [2]). In addition, the EC50 at hFPR1 (Table 4, read-out: pEC50, inhibition to cAMP accumulation, hFPR1-Flpln-CHO (converted)) is 74.1 nM; on hFPR1 (Table 8, read-out: pEC50, inhibition of cAMP accumulation, hFPR1-Flpln-CHO (converted)) it was 79.4 nM; at hFPR2 (Table 4, read-out: pEC50, inhibition to cAMP accumulation, hFPR2-Flpln-CHO (converted)), 170 nM; on hFPR2 (Table 8, read-out: pEC50, inhibition of cAMP accumulation, hFPR2-Flpln-CHO (converted)) it was 251 nM. Also, at hFPR1 (Table 8, normalized transduction coefficient, reference agonist Cmpd43), the “ΔLog(τ/KA), inhibition of cAMP accumulation, hFPR1-Flpln-CHO” value is given as 0.0. At hFPR1 (Table 8, transduction coefficient), the “Log(τ/KA), inhibition of cAMP accumulation, hFPR1-Flpln-CHO” value is on record as 7.1 ± 0.3. The “Concentration-response profile on forskolin-stimulated cAMP accumulation at hFPR1” value at hFPR1 was “bell-shaped curves”; on hFPR1 (listed as Cmpd43), “bi-phasic curve”. The “ΔLog(τ/KA), inhibition of cAMP accumulation, hFPR2-Flpln-CHO” value at hFPR2 (Table 8) was 0.0. The “Log(τ/KA), inhibition of cAMP accumulation, hFPR2-Flpln-CHO” value at hFPR2 (Table 8) amounted to 6.5 ± 0.1. In addition, the “Effect on the cAMP response at hFPR2” value on hFPR2 is reported as “caused an inhibition of the cAMP response”.
For the compound `CSCC[C@H](NC=O)C(=O)N[C@@H](CC(C)C)C(=O)N[C@@H](Cc1ccccc1)C(=O)O` [fMLP, N-formyl-Met-Leu-Phe], the Emax on hFPR2 (setting [1]) was 10 ± 8%. On hFPR2 (Table 8), the “ΔLog(τ/KA), inhibition of cAMP accumulation, hFPR2-Flpln-CHO” value is given as −1.6 ± 0.2 and the “Log(τ/KA), inhibition of cAMP accumulation, hFPR2-Flpln-CHO” value is 4.9 ± 0.1. For the same compound, the maximal effect (Emax) at hFPR2 (setting [2]) was 10 ± 8%. At hFPR2, the “Effect on the cAMP response at hFPR2” value was “caused an inhibition of the cAMP response”.
